In the oligonucleotide strings, read from the 5' end, every base follows the letter of its sugar. An asterisk marks phosphorothioate; unmarked linkages are phosphodiester. Other units and linkages are bracketed, terminal groups are in braces. A string of capitals states the bases alone. e = 2'-O-(2-methoxyethyl) (MOE); [5mC] = 5-methylcytosine; d = 2'-deoxy (DNA)

The source of these data is patent publication US20120083522A1, “MODULATION OF INFLAMMATORY RESPONSES BY FACTOR XI” (Isis Pharmaceuitcals, inc., priority 2009, published 2012).

For the first series, the system named is human Factor XI mRNA. As to the kind of experiment: Antisense inhibition in HepG2 cells by microwalk gapmers, 75 nM, lipofectin (Example 3). In kind it is cell-based. The following applies: HepG2 cells, 75 nM, oligonucleotides targeted to nucleobases 738 to 762 of SEQ ID NO: 1. The procedure: These gapmers were designed by creating gapmers shifted slightly upstream and downstream (i.e. “microwalk”) of the original gapmers from Table 3. Gapmers were also created with various motifs, e.g. 5-10-5 MOE, 3-14-3 MOE, and 2-13-5 MOE. These gapmers were tested in vitro. Cultured HepG2 cells at a density of 10,000 cells per well were transfected using lipofectin reagent with 75 nM antisense oligonucleotide. After a treatment period of approximately 24 hours, RNA was isolated from the cells and Factor XI mRNA levels were measured by quantitative real-time PCR. Factor XI mRNA levels were adjusted according to total RNA content, as measured by RIBOGREEN®. Results are presented as percent inhibition of Factor XI, relative to untreated control cells.
The chimeric antisense oligonucleotides in Table 4 were designed as 5-10-5 MOE, 3-14-3 MOE, and 2-13-5 MOE gapmers. The first listed gapmers in Table 4 are the original gapmers (see Table 3) from which the remaining gapmers were designed via microwalk and are designated by an asterisk. The 5-10-5 gapmers are 20 nucleotides in length, wherein the central gap segment is comprised of 10 2′-deoxynucleotides and is flanked on both sides (in the 5′ and 3′ directions) by wings comprising 5 nucleotides each. The 3-14-3 gapmers are 20 nucleotides in length, wherein the central gap segment is comprised of 14 2′-deoxynucleotides and is flanked on both sides (in the 5′ and 3′ directions) by wings comprising 3 nucleotides each. The 2-13-5 gapmers are 20 nucleotides in length, wherein the central gap segment is comprised of 13 2′-deoxynucleotides. The central gap is flanked on the 5′ end with a wing comprising 2 nucleotides and on the 3′ end with a wing comprising 5 nucleotides. For each of the motifs (5-10-5, 3-14-3, and 2-13-5), each nucleotide in the 5′ wing segment and each nucleotide in the 3′ wing segment has a 2′-MOE modification. The internucleoside linkages throughout each gapmer are phosphorothioate (P═S) linkages. All cytidine residues throughout each gapmer are 5-methylcytidines. “Target start site” indicates the 5′-most nucleotide to which the gapmer is targeted. “Target stop site” indicates the 3′-most nucleotide to which the gapmer is targeted. Each gapmer listed in Table 4 is targeted to SEQ ID NO: 1 (GENBANK Accession No. NM_000128.3).
In the case of “416975 (antisense e[5mC]*e[5mC]*dG*dT*dG*d[5mC]*dA*dT*d[5mC]*dT*dT*dT*d[5mC]*dT*dT*eG*eG*e[5mC]*eA*eT) [compound 416975]”, the “% inhibition of human Factor XI mRNA levels” value (“% inhibition” below) amounted to 87%. Still for that read-out and setting: for “416976 (antisense eT*e[5mC]*d[5mC]*dG*dT*dG*d[5mC]*dA*dT*d[5mC]*dT*dT*dT*d[5mC]*dT*eT*eG*eG*e[5mC]*eA) [compound 416976]” the value was 83%; for “416977 (antisense eA*eT*d[5mC]*d[5mC]*dG*dT*dG*d[5mC]*dA*dT*d[5mC]*dT*dT*dT*d[5mC]*eT*eT*eG*eG*e[5mC]) [compound 416977]”, 82%; for “416978 (antisense e[5mC]*eA*dT*d[5mC]*d[5mC]*dG*dT*dG*d[5mC]*dA*dT*d[5mC]*dT*dT*dT*e[5mC]*eT*eT*eG*eG) [compound 416978]”, 76%. On the same count and under the same terms, the value for “416979 (antisense eT*e[5mC]*dA*dT*d[5mC]*d[5mC]*dG*dT*dG*d[5mC]*dA*dT*d[5mC]*dT*dT*eT*e[5mC]*eT*eT*eG) [compound 416979]” was 63%. On the same count and under the same terms, the value for “416980 (antisense eG*eT*d[5mC]*dA*dT*d[5mC]*d[5mC]*dG*dT*dG*d[5mC]*dA*dT*d[5mC]*dT*eT*eT*e[5mC]*eT*eT) [compound 416980]” was 87%.

The same series, now with this note: HepG2 cells, 75 nM, oligonucleotides targeted to nucleobases 1018 to 1042 of SEQ ID NO: 1.
As for “416981 (antisense e[5mC]*e[5mC]*dG*dG*dG*dA*dT*dG*dA*dT*dG*dA*dG*dT*dG*e[5mC]*eA*eG*eA*eT) [compound 416981]”, the “% inhibition” value came to 87%. The same measure, in the same setting: the value for “416982 (antisense eA*e[5mC]*d[5mC]*dG*dG*dG*dA*dT*dG*dA*dT*dG*dA*dG*dT*eG*e[5mC]*eA*eG*eA) [compound 416982]” was 84%; that for “416983 (antisense eA*eA*d[5mC]*d[5mC]*dG*dG*dG*dA*dT*dG*dA*dT*dG*dA*dG*eT*eG*e[5mC]*eA*eG) [compound 416983]” was 86%.

The series is the same for the next values; noted with them: HepG2 cells, 75 nM, oligonucleotides targeted to nucleobases 1062 to 1091 of SEQ ID NO: 1.
For “416986 (antisense eA*eT*dT*d[5mC]*dT*dT*dT*dG*dG*dG*d[5mC]*d[5mC]*dA*dT*dT*e[5mC]*e[5mC]*eT*eG*eG) [compound 416986]”, the “% inhibition” value came out at 88%. The same measure, in the same setting: the value for “416987 (antisense eG*eA*dT*dT*d[5mC]*dT*dT*dT*dG*dG*dG*d[5mC]*d[5mC]*dA*dT*eT*e[5mC]*e[5mC]*eT*eG) [compound 416987]” was 80%; that for “416988 (antisense eA*eG*dA*dT*dT*d[5mC]*dT*dT*dT*dG*dG*dG*d[5mC]*d[5mC]*dA*eT*eT*e[5mC]*e[5mC]*eT) [compound 416988]” was 76%; that for “416990 (antisense eT*eG*dA*dG*dA*dT*dT*d[5mC]*dT*dT*dT*dG*dG*dG*d[5mC]*e[5mC]*eA*eT*eT*e[5mC]) [compound 416990]” was 76%. Still for that read-out and setting: the value for “416991 (antisense eT*eT*dG*dA*dG*dA*dT*dT*d[5mC]*dT*dT*dT*dG*dG*dG*e[5mC]*e[5mC]*eA*eT*eT) [compound 416991]” was 87%; that for “416992 (antisense eT*eT*dT*dG*dA*dG*dA*dT*dT*d[5mC]*dT*dT*dT*dG*dG*eG*e[5mC]*e[5mC]*eA*eT) [compound 416992]” was 84%.

On to “416994 (antisense eT*e[5mC]*dT*dT*dT*dG*dA*dG*dA*dT*dT*d[5mC]*dT*dT*dT*eG*eG*eG*e[5mC]*e[5mC]) [compound 416994]”, for which the “% inhibition” value came out at 83%.

Consider “416995 (antisense eT*eT*d[5mC]*dT*dT*dT*dG*dA*dG*dA*dT*dT*d[5mC]*dT*dT*eT*eG*eG*eG*e[5mC]) [compound 416995]”, for which the “% inhibition” value is listed as 64%. Still for that read-out and setting: for “416996 (antisense eT*eT*dT*d[5mC]*dT*dT*dT*dG*dA*dG*dA*dT*dT*d[5mC]*dT*eT*eT*eG*eG*eG) [compound 416996]” the value was 22%.

The series is the same for the next values; noted with them: HepG2 cells, 75 nM, oligonucleotides targeted to nucleobases 1275 to 1318 of SEQ ID NO: 1.
Regarding “416933 (antisense eA*e[5mC]*eG*dG*d[5mC]*dA*dT*dT*dG*dG*dT*dG*d[5mC]*dA*d[5mC]*dA*dG*eT*eT*eT) [compound 416933]”, the “% inhibition” value was found to be 92%. Same read-out and setting: the value for “416934 (antisense eG*eA*e[5mC]*dG*dG*d[5mC]*dA*dT*dT*dG*dG*dT*dG*d[5mC]*dA*d[5mC]*dA*eG*eT*eT) [compound 416934]” was 90%. Same read-out and setting: for “416935 (antisense eG*eG*eA*d[5mC]*dG*dG*d[5mC]*dA*dT*dT*dG*dG*dT*dG*d[5mC]*dA*d[5mC]*eA*eG*eT) [compound 416935]” the value was 92%; for “416936 (antisense e[5mC]*eG*eG*dA*d[5mC]*dG*dG*d[5mC]*dA*dT*dT*dG*dG*dT*dG*d[5mC]*dA*e[5mC]*eA*eG) [compound 416936]”, 89%.

As for “416937 (antisense eG*e[5mC]*eG*dG*dA*d[5mC]*dG*dG*d[5mC]*dA*dT*dT*dG*dG*dT*dG*d[5mC]*eA*e[5mC]*eA) [compound 416937]”, the “% inhibition” value turned out to be 93%. The same measure, in the same setting: for “416938 (antisense eA*eG*e[5mC]*dG*dG*dA*d[5mC]*dG*dG*d[5mC]*dA*dT*dT*dG*dG*dT*dG*e[5mC]*eA*e[5mC]) [compound 416938]” the value was 90%; for “416939 (antisense e[5mC]*eA*eG*d[5mC]*dG*dG*dA*d[5mC]*dG*dG*d[5mC]*dA*dT*dT*dG*dG*dT*eG*e[5mC]*eA) [compound 416939]”, 88%; for “416940 (antisense eG*e[5mC]*eA*dG*d[5mC]*dG*dG*dA*d[5mC]*dG*dG*d[5mC]*dA*dT*dT*dG*dG*eT*eG*e[5mC]) [compound 416940]”, 92%. Same read-out and setting: the value for “416942 (antisense eT*eG*eG*d[5mC]*dA*dG*d[5mC]*dG*dG*dA*d[5mC]*dG*dG*d[5mC]*dA*dT*dT*eG*eG*eT) [compound 416942]” was 85%. “416943 (antisense e[5mC]*eT*eG*dG*d[5mC]*dA*dG*d[5mC]*dG*dG*dA*d[5mC]*dG*dG*d[5mC]*dA*dT*eT*eG*eG) [compound 416943]”: the “% inhibition” value amounted to 92%. The same measure, in the same setting: for “416944 (antisense eA*e[5mC]*eT*dG*dG*d[5mC]*dA*dG*d[5mC]*dG*dG*dA*d[5mC]*dG*dG*d[5mC]*dA*eT*eT*eG) [compound 416944]” the value was 83%. On the same count and under the same terms, for “416997 (antisense eA*e[5mC]*dA*dG*dT*dT*dT*d[5mC]*dT*dG*dG*d[5mC]*dA*dG*dG*e[5mC]*e[5mC]*eT*e[5mC]*eG) [compound 416997]” the value was 84%. The same measure, in the same setting: the value for “416998 (antisense e[5mC]*eA*d[5mC]*dA*dG*dT*dT*dT*d[5mC]*dT*dG*dG*d[5mC]*dA*dG*eG*e[5mC]*e[5mC]*eT*e[5mC]) [compound 416998]” was 88%; that for “417001 (antisense eG*eT*dG*d[5mC]*dA*d[5mC]*dA*dG*dT*dT*dT*d[5mC]*dT*dG*dG*e[5mC]*eA*eG*eG*e[5mC]) [compound 417001]” was 83%; that for “417004 (antisense eT*eT*dG*dG*dT*dG*d[5mC]*dA*d[5mC]*dA*dG*dT*dT*dT*d[5mC]*eT*eG*eG*e[5mC]*eA) [compound 417004]” was 86%. As for “417005 (antisense eA*eT*dT*dG*dG*dT*dG*d[5mC]*dA*d[5mC]*dA*dG*dT*dT*dT*e[5mC]*eT*eG*eG*e[5mC]) [compound 417005]”, the “% inhibition” value stood at 79%. Same read-out and setting: the value for “417006 (antisense e[5mC]*eA*dT*dT*dG*dG*dT*dG*d[5mC]*dA*d[5mC]*dA*dG*dT*dT*eT*e[5mC]*eT*eG*eG) [compound 417006]” was 81%; that for “417007 (antisense eG*e[5mC]*dA*dT*dT*dG*dG*dT*dG*d[5mC]*dA*d[5mC]*dA*dG*dT*eT*eT*e[5mC]*eT*eG) [compound 417007]” was 82%. Consider “417008 (antisense eG*eG*d[5mC]*dA*dT*dT*dG*dG*dT*dG*d[5mC]*dA*d[5mC]*dA*dG*eT*eT*eT*e[5mC]*eT) [compound 417008]”, for which the “% inhibition” value is 82%.
